Assay: Plasma stability assay
Format: in vitro ADME
Settings: pH 7.4, 37° C., 1 μM

For Nc1ccc(-c2ccc3ncc(-c4nnco4)c(NCCCn4ccnc4)c3c2)cn1 [Compound 24, N-(3-(1H-imidazol-1-yl)propyl)-6-(6-aminopyridin-3-yl)-3-(1,3,4-oxadiazol-2-yl)quinolin-4-amine], the “Mean % remaining at 2 hrs in human Plasma” value was 84.18%.
